# Experimental data as given in ChEMBL document CHEMBL5500427, “Discovery of New Phenyltetrazolium Derivatives as Ferroptosis Inhibitors for Treating Ischemic Stroke: An Example Development from Free Radical Scavengers” (J Med Chem, 2024).
# The source made the active and inactive calls. No cut-off for these calls is given here.
# How the values were obtained:
# [1] = tested on: HT-1080; assay: Anti-ferroptotic activity against Erastin-induced human HT-1080 cells assessed as inhibition of ferroptosis incubated for 72 hrs by CCK-8 assay; type: functional, cell-based
# [2] = tested on: MEF; assay: Anti-ferroptotic activity against tamoxifen induced Gpx4 knockout mouse MEF cells assessed as inhibition of ferroptosis incubated for 72 hrs by AquaBluerTM assay; type: functional, cell-based
# [3] = Antioxidant activity assessed as DPPH radical scavenging activity at 0.4 uM incubated for 30 mins by Beckman Coulter analysis relative to control; type: functional
# [4] = tested on: N2a; assay: Cytoprotective activity against oxygen-glucose deprivation/reoxygenation induced cell injury in mouse N2a cells assessed as increase in cell viability at 1 uM incubated for 2 hrs under hypoxia condition and measured after 24 hrs; type: functional, cell-based; settings: time 26.0 hrs
# [5] = Cytotoxicity against human L02 cells incubated for 2 hrs by CCK-8 assay; type: toxicity, cell-based
# [6] = tested on: N2a; assay: Cytoprotective activity against oxygen-glucose deprivation/reoxygenation induced cell injury in mouse N2a cells assessed as upregulation of GPX4 expression at 1 uM incubated for 2 hrs under hypoxia condition and measured after 24 hrs by Western blotting analysis; type: functional, cell-based; settings: time 26.0 hrs
# [7] = tested on: Hippocampus; assay: Anti-ferroptotic activity against glutamate-induced rat Hippocampus assessed as inhibition of ferroptosis; type: functional, tissue-based
# [8] = tested on: Mus musculus; assay: Neuroprotective activity against transient middle cerebral artery occlusion induced ischemia stroke female SPF C57 mouse model assessed as reduction in cerebral infarct volume at 5 mg/kg,iv measured after 24 hrs by TTC staining based analysis relative to control; type: functional; parameters: scale not given: the % may be the effect or the level left
# [9] = tested on: HT-1080; assay: Anti-ferroptotic activity against Erastin-induced ferroptosis in human HT-1080 cells assessed as inhibition of lipid ROS production at 10 uM incubated for 24 hrs by C11-BODIPY 581/591 based flow cytometry relative to control; type: functional; settings: HT-1080, 24 h, values are per cent of control
# [10] = tested on: HT-1080; assay: Anti-ferroptotic activity against Erastin-induced ferroptosis in human HT-1080 cells assessed as inhibition of lipid peroxidation production at 10 uM incubated for 24 hrs by C11-BODIPY 581/591 based flow cytometry relative to control; type: functional; settings: HT-1080, 24 h, values are per cent of control
# [11] = Apparent permeability of compound at 10 uM incubated for 16 hrs by PAMPA based LC-MS/MS analysis; type: ADME
# [12] = tested on: N2a; assay: Cytoprotective activity against oxygen-glucose deprivation/reoxygenation induced cell injury in mouse N2a cells assessed as upregulation of SLC7A11 expression at 1 uM incubated for 2 hrs under hypoxia condition and measured after 24 hrs by Western blotting analysis; type: functional, cell-based; settings: time 26.0 hrs
# [13] = tested on: HT-1080; assay: Anti-ferroptotic activity against Erastin-induced human HT-1080 cells assessed as inhibition of ferroptosis incubated for 24 hrs by Alamar blue dye based assay; type: functional, cell-based; settings: HT-1080, 24 h
# [14] = tested on: HEK293; assay: Cytotoxicity against human HEK293 cells incubated for 2 hrs by CCK-8 assay; type: toxicity, cell-based; settings: hek293, 2 h
# [15] = tested on: Mus musculus; assay: Neuroprotective activity against transient middle cerebral artery occlusion induced ischemia stroke female SPF C57 mouse model assessed as upregulation of SLC7A11 expression at 5 mg/kg,iv measured after 24 hrs by Western blotting analysis; type: functional, organism-based
# [16] = Drug concentration in ICR mouse liver at 1 mg/kg,iv administration measured after 0.5 hrs by LC-MS/MS analysis; type: ADME, organism-based; settings: in vivo
# [17] = tested on: Mus musculus; assay: Neuroprotective activity against transient middle cerebral artery occlusion induced ischemia stroke female SPF C57 mouse model assessed as upregulation of GPX expression at 5 mg/kg,iv measured after 24 hrs by Western blotting analysis; type: functional, organism-based
# [18] = Drug concentration in ICR mouse brain at 1 mg/kg,iv administration measured after 0.5 hrs by LC-MS/MS analysis; type: ADME, organism-based; settings: in vivo
# [19] = Drug concentration in ICR mouse liver at 1 mg/kg,iv administration measured after 1 hrs by LC-MS/MS analysis; type: ADME, organism-based; settings: in vivo
# [20] = Drug concentration in ICR mouse kidney at 1 mg/kg,iv administration measured after 0.5 hrs by LC-MS/MS analysis; type: ADME, organism-based; settings: in vivo
# [21] = Drug concentration in ICR mouse kidney at 1 mg/kg,iv administration measured after 0.25 hrs by LC-MS/MS analysis; type: ADME, organism-based; settings: in vivo
# [22] = Drug concentration in ICR mouse liver at 1 mg/kg,iv administration measured after 0.083 hrs by LC-MS/MS analysis; type: ADME, organism-based; settings: in vivo
# [23] = AUC (0 to t) in ICR mouse at 1 mg/kg,iv administration measured upto 24 hrs by LC-MS/MS analysis; type: ADME, organism-based; settings: in vivo
# [24] = AUC (0 to infinity) in ICR mouse at 1 mg/kg,iv administration measured upto 24 hrs by LC-MS/MS analysis; type: ADME, organism-based; settings: in vivo
# [25] = Cmax in ICR mouse at 1 mg/kg,iv administration measured upto 24 hrs by LC-MS/MS analysis; type: ADME, organism-based; settings: in vivo
# [26] = Drug concentration in ICR mouse lung at 1 mg/kg,iv administration measured after 0.083 hrs by LC-MS/MS analysis; type: ADME, organism-based; settings: in vivo
# [27] = Cytotoxicity against human H6C7 cells incubated for 2 hrs by CCK-8 assay; type: toxicity, cell-based; settings: h6c7, 2 h
# [28] = tested on: Mus musculus; assay: Neuroprotective activity against transient middle cerebral artery occlusion induced ischemia stroke female SPF C57 mouse model assessed as reduction in cerebral edema at 5 mg/kg,iv measured after 24 hrs; type: functional, organism-based
# [29] = Half life in ICR mouse at 1 mg/kg,iv administration measured upto 24 hrs by LC-MS/MS analysis; type: ADME, organism-based; settings: in vivo
# [30] = Drug concentration in ICR mouse kidney at 1 mg/kg,iv administration measured after 1 hrs by LC-MS/MS analysis; type: ADME, organism-based; settings: in vivo
# [31] = Tmax in ICR mouse at 1 mg/kg,iv administration measured upto 24 hrs by LC-MS/MS analysis; type: ADME, organism-based; settings: in vivo
# [32] = Drug concentration in ICR mouse liver at 1 mg/kg,iv administration measured after 0.25 hrs by LC-MS/MS analysis; type: ADME, organism-based; settings: in vivo
# [33] = Drug concentration in ICR mouse lung at 1 mg/kg,iv administration measured after 0.25 hrs by LC-MS/MS analysis; type: ADME, organism-based; settings: in vivo
# [34] = tested on: Mus musculus; assay: Neuroprotective activity against transient middle cerebral artery occlusion induced ischemia stroke female SPF C57 mouse model assessed as reduction in neurological deficit score at 5 mg/kg,iv measured after 24 hrs; type: functional
# [35] = Drug concentration in ICR mouse lung at 1 mg/kg,iv administration measured after 0.5 hrs by LC-MS/MS analysis; type: ADME, organism-based; settings: in vivo
# [36] = Drug concentration in ICR mouse brain at 1 mg/kg,iv administration measured after 0.25 hrs by LC-MS/MS analysis; type: ADME, organism-based; settings: in vivo
# [37] = Drug concentration in ICR mouse brain at 1 mg/kg,iv administration measured after 0.083 hrs by LC-MS/MS analysis; type: ADME, organism-based; settings: in vivo
# [38] = Drug concentration in ICR mouse kidney at 1 mg/kg,iv administration measured after 0.083 hrs by LC-MS/MS analysis; type: ADME, organism-based; settings: in vivo
# [39] = tested on: HT-1080; assay: Anti-ferroptotic activity against Erastin-induced ferroptosis in human HT-1080 cells assessed as inhibition of lipid ROS production at 0.5 uM incubated for 24 hrs by C11-BODIPY 581/591 based flow cytometry relative to control; type: functional
# [40] = Homo sapiens, HT-1080, 72 h, read-out: IC50
smiles,measurement,setting,value
Cc1cc(NC2CCCCC2)ccc1-c1nnn(C)n1,IC50,[1]; [40],990 nM
Clc1cccc(CNC2=Nc3ccccc3NC23CCNCC3)c1,IC50,[2],22 nM
O=S1(=O)CCN(Cc2cc(NC3CCOCC3)c3[nH]c(-c4ccccc4)cc3c2)CC1,IC50,[1]; [40],6000 nM
Cn1nnc(-c2cc(N)c(NC3CCCCC3)cc2Cl)n1,IC50,[1]; [40],17 nM
Oc1cc(O)cc(/C=C/c2ccc(O)cc2O)c1 [OXYRESVERATROL],IC50,[1]; ht-1080,Not Active
Cn1nnc(-c2ccc(NC3CCCCC3)cc2Cl)n1,IC50,[1]; [40],> 1000 nM
COc1cc(-c2nnn(C)n2)ccc1NC1CCCCC1,IC50,[1]; [40],> 1000 nM
O=C1c2c(O)cc(O)cc2O[C@H](c2ccc(O)c(O)c2)[C@H]1O [(+)-TAXIFOLIN],IC50,[1]; [40],> 10000 nM
Cn1nnc(-c2ccc(NC3CCCCC3)cc2N)n1,IC50,[1]; [40],> 1000 nM
Cn1nnc(-c2c(F)cc(NC3CCCCC3)cc2F)n1,IC50,[1]; [40],> 1000 nM
Cn1nnc(-c2ccc(NC3CCCCC3)c(NCc3ccncc3)c2)n1,IC50,[1]; [40],> 1000 nM
CCCCCCCCNc1ccc(-c2nnn(C)n2)cc1N,IC50,[1]; [40],497 nM
Cn1nnc(-c2cc(N)c(NC3CCCCC3)cc2F)n1,inhibition,[3],35.3%
same,Activity,[4],Active
same,IC50 at 2 h,[5],12300 nM
same,IC50,[1]; [40],49 nM
CCOC(=O)c1ccc(NC2CCCCC2)c(N)c1,Activity,[6],Active
same,inhibition,[3],inactive
same,IC50,[7],90 nM
same,IC50,[1]; [40],60 nM
same,Activity,[8],9.98%
same,"response, % of control at 10 µM",[9],2.29%
same,"response, % of control at 10 µM",[10],0.58%
same,"Papp at 16 h, 10 µM",[11],6.76 ×10⁻⁶ cm/s
same,Activity,[12],Active
Cn1nnc(-c2ccc(NC3CCCCC3)c(N)c2)n1,IC50,[1]; [40],30 nM
COc1ccc(Nc2ccc(-c3nnn(C)n3)cc2NC2CCCCC2)cn1,IC50,[1]; [40],75 nM
CCOC(=O)c1ccc(NC2CCCCC2)c(NCc2ccccc2)c1,IC50,[13],6 nM
COc1cc(NC2CCCCC2)c(N)cc1-c1nnn(C)n1,IC50,[1]; [40],801 nM
Cn1nnc(-c2cccc(NC3CCCCC3)c2N)n1,IC50,[1]; [40],> 1000 nM
Cc1c(-c2nnn(C)n2)ccc(NC2CCCCC2)c1N,IC50,[1]; [40],44 nM
Cn1nnc(-c2ccc(NC3CCCCC3)cc2)n1,IC50,[1]; [40],122 nM
same,"response, % of control at 10 µM",[10],5.96%
COc1ccc(Nc2ccc(-c3nnn(C)n3)cc2NC2CCCCC2)cc1,IC50,[1]; [40],81 nM
Cn1nnc(-c2ccc(N)c(NC3CCCCC3)c2)n1,Activity,[14],Toxic
same,Activity,[6],Active
same,Activity,[15],Active
same,inhibition,[3],41.3%
same,Ct,[16],0.09 mg/kg
same,Activity,[4],Active
same,Activity,[17],Active
same,Ct,[18],0.02 mg/kg
same,IC50,[1]; [40],22 nM
same,Ct,[19],0.02 mg/kg
same,Ct,[20],0.12 mg/kg
same,Ct,[21],0.38 mg/kg
same,Ct,[22],0.32 mg/kg
same,AUC(0-t) at 24 h,[23],91.5 ng·h/mL
same,AUC(0-inf),[24],95.6 ng·h/mL
same,Cmax,[25],367 ng/mL
same,Ct,[26],0.37 mg/kg
same,Activity,[8],12.03%
same,Activity,[27],Toxic
same,"response, % of control at 10 µM",[9],0.57%
same,Activity,[28],Active
same,half-life,[29],6 min
same,Ct,[30],0.03 mg/kg
same,Tmax,[31],4.8 min
same,Ct,[32],0.24 mg/kg
same,Ct,[33],0.19 mg/kg
same,Activity,[34],2
same,Ct,[35],0.1 mg/kg
same,Ct,[36],0.04 mg/kg
same,"Papp at 16 h, 10 µM",[11],3.89 ×10⁻⁶ cm/s
same,Ct,[37],0.09 mg/kg
same,Activity,[12],Active
same,Ct,[38],0.41 mg/kg
same,inhibition at 0.5 µM,[39],0.3%
Cn1nnc(-c2ccc(NC3CCCCC3)cc2C(F)(F)F)n1,IC50,[1]; [40],> 1000 nM
Cn1nnc(-c2ccc(NC3CCCCC3)c(NCc3ccccc3)c2)n1,IC50,[1]; [40],> 1000 nM
N#CCn1nnc(-c2ccc(NC3CCCCC3)cc2)n1,IC50,[1]; [40],8120 nM
c1cc(-c2nn[nH]n2)ccc1NC1CCCCC1,IC50,[1]; [40],> 10000 nM
CN(c1ccc(-c2nnn(C)n2)cc1)C1CCCCC1,IC50,[1]; [40],> 10000 nM
FC(F)(F)Cn1nnc(-c2ccc(NC3CCCCC3)cc2)n1,IC50,[1]; [40],> 10000 nM
Cn1nnc(-c2ccc(NC3CCCCC3)cn2)n1,IC50,[1]; [40],> 1000 nM
Cn1nnc(-c2ccc(NC3CCCCC3)cc2F)n1,IC50,[1]; [40],> 1000 nM
Cn1nnc(-c2ccc(O)c(NC3CCCCC3)c2)n1,IC50,[1]; [40],> 1000 nM
CCn1nnc(-c2ccc(NC3CCCCC3)cc2)n1,IC50,[1]; [40],8510 nM
Cn1nnc(-c2ccc(Nc3cccnc3)c(NC3CCCCC3)c2)n1,IC50,[1]; [40],186 nM
O=C1C[C@@H](c2ccc(O)c(O)c2)Oc2cc(O[C@@H]3O[C@H](CO)[C@@H](O)[C@H](O)[C@H]3O)cc(O)c21,IC50,[1]; [40],10000 nM
CNc1ccc(-c2nnn(C)n2)cc1,IC50,[1]; [40],8220 nM
Cc1cc(NC2CCCCC2)c(N)cc1-c1nnn(C)n1,IC50,[1]; [40],71 nM
Cn1nnc(-c2cnc(NC3CCCCC3)s2)n1,IC50,[1]; [40],> 1000 nM
